Where two headings read alike, the source gives them in different places. Values belong to the compound of their own block, whether it stands above or below them.
Key:
[1] = system: A431 cancer cells; settings: read-out: A431 Cytotoxicity IC50; previously evaluated lead compounds; cited from earlier work
[2] = biological target: T1, human DHFR (Homo sapiens, UniProt P00374); settings: number in parentheses; at the concentration stated in the same cell (μM); cited from earlier work
T1 sequence (P00374 1-187): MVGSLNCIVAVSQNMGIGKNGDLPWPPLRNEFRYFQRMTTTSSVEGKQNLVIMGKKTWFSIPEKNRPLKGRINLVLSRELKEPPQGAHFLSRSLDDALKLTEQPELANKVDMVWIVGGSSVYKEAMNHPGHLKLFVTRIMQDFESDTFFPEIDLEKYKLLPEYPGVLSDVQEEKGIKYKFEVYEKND

[3] = biological target: T2, E. coli DHFR (Escherichia coli, UniProt P0ABQ4); settings: number in parentheses; at the concentration stated in the same cell (μM); cited from earlier work
T2 sequence (P0ABQ4 whole entry): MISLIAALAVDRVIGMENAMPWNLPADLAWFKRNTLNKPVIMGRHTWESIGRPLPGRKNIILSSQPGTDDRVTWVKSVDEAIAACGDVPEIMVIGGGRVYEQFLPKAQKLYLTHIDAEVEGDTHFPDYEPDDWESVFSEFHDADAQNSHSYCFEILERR

[4] = biological target: VEGFR-2 (Flk-1) (Homo sapiens, UniProt P35968); assay: VEGFR-2 kinase inhibition, phosphotyrosine ELISA in whole cells; type: cell-based; settings: for VEGFR-2 assay: fold less potent than semaxanib: relative to standard semaxanib
VEGFR-2 (Flk-1), sequence (P35968 20-1356): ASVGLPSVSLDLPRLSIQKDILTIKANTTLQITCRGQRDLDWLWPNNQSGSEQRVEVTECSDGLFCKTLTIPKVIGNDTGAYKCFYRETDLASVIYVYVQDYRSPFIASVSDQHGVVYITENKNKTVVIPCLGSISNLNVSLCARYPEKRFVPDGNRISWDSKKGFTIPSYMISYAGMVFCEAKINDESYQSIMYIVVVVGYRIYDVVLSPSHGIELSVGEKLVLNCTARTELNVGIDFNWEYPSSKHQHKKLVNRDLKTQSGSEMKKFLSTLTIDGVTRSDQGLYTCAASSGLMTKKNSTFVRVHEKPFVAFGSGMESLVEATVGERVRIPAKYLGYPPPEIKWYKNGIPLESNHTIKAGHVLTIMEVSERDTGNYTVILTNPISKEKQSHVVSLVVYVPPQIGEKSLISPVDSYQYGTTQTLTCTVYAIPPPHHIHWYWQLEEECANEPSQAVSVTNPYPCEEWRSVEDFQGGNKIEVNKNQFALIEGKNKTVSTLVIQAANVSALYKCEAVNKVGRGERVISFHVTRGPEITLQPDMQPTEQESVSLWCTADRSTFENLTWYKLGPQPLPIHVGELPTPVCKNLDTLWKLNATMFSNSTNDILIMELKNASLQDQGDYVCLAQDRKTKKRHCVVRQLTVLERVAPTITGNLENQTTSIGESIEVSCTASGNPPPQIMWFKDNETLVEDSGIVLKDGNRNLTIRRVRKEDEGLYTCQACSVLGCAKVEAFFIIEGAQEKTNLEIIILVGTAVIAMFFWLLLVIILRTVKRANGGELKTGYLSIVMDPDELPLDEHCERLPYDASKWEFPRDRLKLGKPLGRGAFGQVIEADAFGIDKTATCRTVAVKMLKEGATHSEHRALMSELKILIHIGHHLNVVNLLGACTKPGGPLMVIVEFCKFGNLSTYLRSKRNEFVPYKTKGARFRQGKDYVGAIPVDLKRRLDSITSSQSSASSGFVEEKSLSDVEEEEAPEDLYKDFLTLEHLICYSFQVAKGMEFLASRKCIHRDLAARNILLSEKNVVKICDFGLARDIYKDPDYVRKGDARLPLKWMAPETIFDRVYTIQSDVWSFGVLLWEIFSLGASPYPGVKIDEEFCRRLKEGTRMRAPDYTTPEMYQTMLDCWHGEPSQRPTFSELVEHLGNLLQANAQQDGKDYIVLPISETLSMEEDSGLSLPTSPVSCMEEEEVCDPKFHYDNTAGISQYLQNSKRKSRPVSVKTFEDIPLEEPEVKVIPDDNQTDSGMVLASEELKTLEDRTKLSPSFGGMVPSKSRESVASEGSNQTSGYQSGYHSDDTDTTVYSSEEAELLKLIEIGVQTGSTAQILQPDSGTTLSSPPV

[5] = biological target: EGFR (Homo sapiens, UniProt P00533); assay: EGFR kinase inhibition, phosphotyrosine ELISA in whole cells; type: cell-based; settings: relative to standard 24
EGFR, sequence (P00533 25-1210): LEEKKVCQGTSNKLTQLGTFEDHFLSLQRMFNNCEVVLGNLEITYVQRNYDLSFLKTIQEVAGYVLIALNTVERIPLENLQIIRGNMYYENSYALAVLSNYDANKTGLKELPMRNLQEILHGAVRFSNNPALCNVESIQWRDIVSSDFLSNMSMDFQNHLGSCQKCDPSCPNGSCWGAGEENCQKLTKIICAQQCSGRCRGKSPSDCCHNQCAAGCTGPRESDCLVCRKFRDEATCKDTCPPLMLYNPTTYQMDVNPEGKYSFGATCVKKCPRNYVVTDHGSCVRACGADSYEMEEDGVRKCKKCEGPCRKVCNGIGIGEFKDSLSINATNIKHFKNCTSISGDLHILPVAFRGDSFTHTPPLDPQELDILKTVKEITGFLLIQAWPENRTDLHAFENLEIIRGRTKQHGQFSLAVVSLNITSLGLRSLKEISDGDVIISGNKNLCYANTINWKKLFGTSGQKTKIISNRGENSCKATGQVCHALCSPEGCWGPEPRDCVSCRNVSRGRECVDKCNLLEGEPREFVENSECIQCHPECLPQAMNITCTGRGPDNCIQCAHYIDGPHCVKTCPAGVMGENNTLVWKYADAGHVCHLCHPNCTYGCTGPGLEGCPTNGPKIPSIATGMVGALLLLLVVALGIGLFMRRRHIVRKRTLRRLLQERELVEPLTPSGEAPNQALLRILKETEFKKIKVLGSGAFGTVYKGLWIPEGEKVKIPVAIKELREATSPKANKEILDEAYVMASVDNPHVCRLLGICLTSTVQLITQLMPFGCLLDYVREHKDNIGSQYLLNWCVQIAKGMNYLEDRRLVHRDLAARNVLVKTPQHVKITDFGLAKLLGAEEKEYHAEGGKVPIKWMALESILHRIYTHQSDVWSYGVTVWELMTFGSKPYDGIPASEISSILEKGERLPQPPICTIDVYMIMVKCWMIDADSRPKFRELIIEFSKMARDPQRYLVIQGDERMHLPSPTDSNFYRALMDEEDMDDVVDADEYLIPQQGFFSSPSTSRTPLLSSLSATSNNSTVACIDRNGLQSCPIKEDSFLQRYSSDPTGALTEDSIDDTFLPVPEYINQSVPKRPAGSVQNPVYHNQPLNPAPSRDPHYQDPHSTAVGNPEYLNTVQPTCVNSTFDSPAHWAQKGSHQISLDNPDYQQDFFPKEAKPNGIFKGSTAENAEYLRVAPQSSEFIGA

[6] = biological target: PDGFR-β (Homo sapiens, UniProt P09619); assay: PDGFR-β kinase inhibition, phosphotyrosine ELISA in whole cells; type: cell-based; settings: for PDGFR-β assay: activity in words: even at 200 micromolar concentrations; for PDGFR-β assay: fold less active than DMBI: relative to standard DMBI
PDGFR-β, sequence (P09619 33-1106): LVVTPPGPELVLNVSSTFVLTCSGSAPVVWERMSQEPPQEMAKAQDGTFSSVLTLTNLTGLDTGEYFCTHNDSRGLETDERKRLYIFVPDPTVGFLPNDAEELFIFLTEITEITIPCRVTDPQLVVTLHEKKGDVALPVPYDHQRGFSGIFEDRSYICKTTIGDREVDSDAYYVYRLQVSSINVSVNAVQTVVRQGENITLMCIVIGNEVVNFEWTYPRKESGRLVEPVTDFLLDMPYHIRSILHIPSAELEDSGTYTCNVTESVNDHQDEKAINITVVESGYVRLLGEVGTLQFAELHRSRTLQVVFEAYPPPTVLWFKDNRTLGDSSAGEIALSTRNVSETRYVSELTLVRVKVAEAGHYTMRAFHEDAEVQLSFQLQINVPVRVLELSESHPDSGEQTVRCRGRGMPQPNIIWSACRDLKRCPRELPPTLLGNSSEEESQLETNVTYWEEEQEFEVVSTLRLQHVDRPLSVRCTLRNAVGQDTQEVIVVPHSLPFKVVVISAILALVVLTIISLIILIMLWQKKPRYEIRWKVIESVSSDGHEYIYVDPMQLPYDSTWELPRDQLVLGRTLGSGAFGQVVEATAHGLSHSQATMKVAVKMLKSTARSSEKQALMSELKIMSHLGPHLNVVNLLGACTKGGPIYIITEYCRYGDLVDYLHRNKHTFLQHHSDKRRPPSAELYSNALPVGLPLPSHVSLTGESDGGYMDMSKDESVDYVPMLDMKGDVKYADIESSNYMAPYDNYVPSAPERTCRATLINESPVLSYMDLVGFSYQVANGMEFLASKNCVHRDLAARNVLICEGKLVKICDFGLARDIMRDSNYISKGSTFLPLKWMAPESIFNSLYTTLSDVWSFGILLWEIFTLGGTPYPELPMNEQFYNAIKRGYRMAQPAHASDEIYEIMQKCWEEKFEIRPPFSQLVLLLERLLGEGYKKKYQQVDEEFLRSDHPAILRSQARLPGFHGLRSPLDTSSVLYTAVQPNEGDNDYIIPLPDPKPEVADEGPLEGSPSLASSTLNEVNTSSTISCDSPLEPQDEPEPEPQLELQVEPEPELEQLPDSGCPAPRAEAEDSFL

[7] = system: A431 cancer cells; assay: A431 cytotoxicity; type: cell-based, human; settings: for A431 cytotoxicity assay: fold less active than cisplatin: relative to standard cisplatin
[8] = biological target: human TS (Homo sapiens, UniProt P04818); assay: Thymidylate synthase; type: biochemical; settings: relative to raltitrexed (RTX)
human TS, sequence (P04818 whole entry): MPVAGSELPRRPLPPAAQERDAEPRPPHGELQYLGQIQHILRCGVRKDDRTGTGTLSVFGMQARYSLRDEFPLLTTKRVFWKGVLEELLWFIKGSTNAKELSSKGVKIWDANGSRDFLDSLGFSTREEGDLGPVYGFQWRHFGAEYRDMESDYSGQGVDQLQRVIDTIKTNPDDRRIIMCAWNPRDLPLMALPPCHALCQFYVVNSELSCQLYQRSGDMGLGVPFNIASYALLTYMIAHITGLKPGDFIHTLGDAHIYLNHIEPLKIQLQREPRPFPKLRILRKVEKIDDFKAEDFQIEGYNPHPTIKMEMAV

[9] = biological target: T2, E. coli DHFR; assay: Dihydrofolate reductase; type: biochemical; settings: number in parentheses; at the concentration stated in the same cell (μM)
[10] = biological target: E. coli TS (Escherichia coli, UniProt P0A884); assay: Thymidylate synthase; type: biochemical; settings: number in parentheses; at the concentration stated in the same cell (μM)
E. coli TS, sequence (P0A884 whole entry): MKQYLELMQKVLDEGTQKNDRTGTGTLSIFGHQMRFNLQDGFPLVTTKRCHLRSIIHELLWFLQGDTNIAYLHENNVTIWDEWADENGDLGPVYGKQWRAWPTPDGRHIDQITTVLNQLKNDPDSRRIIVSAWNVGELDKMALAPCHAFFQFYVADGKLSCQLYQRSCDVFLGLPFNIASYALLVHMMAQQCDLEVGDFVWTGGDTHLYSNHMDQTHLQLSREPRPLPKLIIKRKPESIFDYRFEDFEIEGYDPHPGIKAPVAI

[11] = system: COLO-205 xenograft; settings: COLO-205 xenograft mouse model, cited from earlier work

SMILES: Cc1ccc(Sc2cccc3[nH]c4nc(N)nc(N)c4c23)cc1 [Compound 2]
IC50 [1]: 14.1 ± 2 µM | DHFR Human, percent inhibition at the stated concentration [2]: 7% | DHFR E. coli, percent inhibition at the stated concentration [3]: 27%

SMILES: COc1ccc(OC)c(Sc2cccc3[nH]c4nc(N)nc(N)c4c23)c1 [Compound 5]
VEGFR-2 assay: fold less potent than semaxanib [4]: equipotent | EGFR assay: fold less active than standard 24 [5]: 22 fold | PDGFR-β assay: activity in words [6]: inactive | A431 cytotoxicity assay: fold less active than cisplatin [7]: about 4 fold | hTS assay: fold less active than RTX [8]: 3 fold | DHFR E. coli, percent inhibition at the stated concentration [9]: 0%

SMILES: COc1ccc(Sc2cccc3[nH]c4nc(N)nc(N)c4c23)cc1 [Compound 6]
VEGFR-2 assay: fold less potent than semaxanib [4]: 15 fold | EGFR assay: fold less active than standard 24 [5]: about 100 fold | PDGFR-β assay: fold less active than DMBI [6]: about 16 fold | A431 cytotoxicity assay: fold less active than cisplatin [7]: about 6 fold | TS E. coli, percent inhibition at the stated concentration [10]: 0%

VEGFR-2 assay: fold less potent than semaxanib [4]: 16 fold | EGFR assay: fold less active than standard 24 [5]: 835 fold | PDGFR-β assay: fold less active than DMBI [6]: about 16 fold | hTS assay: fold less active than RTX [8]: 6 fold
SMILES: Nc1nc(N)c2c(n1)[nH]c1cccc(Sc3cccc4ccccc34)c12 [Compound 4]
A431 cytotoxicity assay: activity in words ([7]; even at 200 micromolar concentration): inactive

SMILES: Nc1nc(N)c2c(n1)[nH]c1cccc(Sc3ccccc3)c12 [Compound 1]
IC50 [1]: 49.2 ± 4.7 µM | DHFR Human, percent inhibition at the stated concentration [2]: 17% | DHFR E. coli, percent inhibition at the stated concentration [3]: 35% | tumor growth inhibition (TGI) ([11]; 35 mg/kg): 76% | liver metastases ([11]; compared with DMBI and control): significantly decreased | tumor blood vessels ([11]; compared with DMBI and control): significantly decreased

SMILES: Nc1nc(N)c2c(n1)[nH]c1cccc(Sc3ccc(Cl)cc3)c12 [Compound 7]
VEGFR-2 assay: activity in words [4]: inactive | EGFR assay: fold less active than standard 24 [5]: 40 fold | PDGFR-β assay: activity in words [6]: inactive | A431 cytotoxicity assay: fold less active than cisplatin [7]: equipotent | hTS assay: fold more potent than RTX [8]: equipotent | DHFR E. coli, percent inhibition at the stated concentration [9]: 0%

SMILES: Nc1nc(N)c2c(n1)[nH]c1cccc(Sc3ccc4ccccc4c3)c12 [Compound 3]
VEGFR-2 assay: fold less potent than semaxanib [4]: 13 fold | EGFR assay: fold less active than standard 24 [5]: 100 fold | PDGFR-β assay: fold less active than DMBI [6]: 24 fold | A431 cytotoxicity assay: fold less active than cisplatin [7]: about 4 fold | TS E. coli, percent inhibition at the stated concentration [10]: 0%

— article PMC5398096 (Bioorganic & medicinal chemistry letters, 2017)
